Values of other authors as cited in patent publication US7015199B1, “Treatment of psoriasis through down-regulation of the EGF-receptor with topically-applied EGF” (priority 2000, dated 2006).

Test system: EGF-dependent cancer cell lines
Details: high levels of EGF, in-vitro

For “epidermal growth factor (NSDSECPLSHDGYCLHDGVCMYIEALDKYACNCVVGYIGERCQYRDLKWWELR; Epidermal growth factor; UniProt P01133 971-1023, looked up) [EGF, epidermal growth factor, ligand of the EGF receptor]”, the “growth of EGF-dependent cancer cell lines” value is given as “inhibited the growth”.
